ChEMBL document CHEMBL5154740, “Novel Aurora A and Protein Kinase C (α, β1, β2, and θ) Multitarget Inhibitors: Impact of Selenium Atoms on the Potency and Selectivity” (J Med Chem, 2022)
pIC50: −log10 of the molar value.

What was measured:
[1] = biological target: ALK tyrosine kinase receptor (Homo sapiens) (UniProt Q9UM73); test: Inhibition of ALK (unknown origin) at 50 nM by Z'LYTE screening method relative to control
[2] = biological target: T1, Aurora kinase C (Homo sapiens) (UniProt Q9UQB9); test: Inhibition of AURC (unknown origin) at 50 nM by Z'LYTE screening method relative to control
T1 sequence (whole entry): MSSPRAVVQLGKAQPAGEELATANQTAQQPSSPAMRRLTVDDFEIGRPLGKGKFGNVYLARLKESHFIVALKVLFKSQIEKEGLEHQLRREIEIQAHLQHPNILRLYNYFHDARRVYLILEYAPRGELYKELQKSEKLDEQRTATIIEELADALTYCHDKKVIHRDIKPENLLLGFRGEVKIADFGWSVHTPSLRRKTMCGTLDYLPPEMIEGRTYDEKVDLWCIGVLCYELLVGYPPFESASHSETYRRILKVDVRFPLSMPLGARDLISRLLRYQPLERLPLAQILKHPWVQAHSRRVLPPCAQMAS

[3] = biological target: Cell division control protein 42 homolog (Homo sapiens) (UniProt P60953); test: Inhibition of CDC42 delta (unknown origin) at 50 nM by Z'LYTE screening method relative to control
[4] = biological target: CDK1/Cyclin A (Homo sapiens) (UniProt P06493+P20248); test: Inhibition of CDK1/CyclinA (unknown origin) at 50 nM by Z'LYTE screening method relative to control; type: protein-complex assay
[5] = biological target: T2, Eukaryotic elongation factor 2 kinase (Homo sapiens) (UniProt O00418); test: Inhibition of EEF2K (unknown origin) at 50 nM by Z'LYTE screening method relative to control
T2 sequence (whole entry): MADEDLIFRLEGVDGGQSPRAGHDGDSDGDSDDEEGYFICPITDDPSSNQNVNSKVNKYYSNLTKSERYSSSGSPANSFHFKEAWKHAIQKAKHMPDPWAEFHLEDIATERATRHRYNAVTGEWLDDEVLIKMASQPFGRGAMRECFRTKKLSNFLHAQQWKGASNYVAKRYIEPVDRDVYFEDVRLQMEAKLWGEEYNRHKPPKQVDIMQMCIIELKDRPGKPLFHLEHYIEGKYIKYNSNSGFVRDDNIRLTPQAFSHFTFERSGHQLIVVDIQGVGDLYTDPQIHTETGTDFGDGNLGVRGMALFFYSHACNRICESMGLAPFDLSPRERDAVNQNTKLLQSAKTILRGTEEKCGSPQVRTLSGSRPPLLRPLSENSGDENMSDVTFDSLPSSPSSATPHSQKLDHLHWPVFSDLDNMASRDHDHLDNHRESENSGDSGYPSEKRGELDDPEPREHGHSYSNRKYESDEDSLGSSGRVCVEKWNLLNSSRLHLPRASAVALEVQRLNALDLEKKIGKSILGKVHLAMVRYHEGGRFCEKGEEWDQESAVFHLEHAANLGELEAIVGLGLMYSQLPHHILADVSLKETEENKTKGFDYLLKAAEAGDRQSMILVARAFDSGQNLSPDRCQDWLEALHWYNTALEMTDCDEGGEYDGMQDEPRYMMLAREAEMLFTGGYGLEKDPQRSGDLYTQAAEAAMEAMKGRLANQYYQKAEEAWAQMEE

[6] = biological target: Serine/threonine-protein kinase mTOR (Homo sapiens) (UniProt P42345); test: Inhibition of FRAP1 (unknown origin) at 50 nM by Z'LYTE screening method relative to control
[7] = biological target: Mitogen-activated protein kinase 11 (Homo sapiens) (UniProt Q15759); test: Inhibition of MAPK11 (unknown origin) at 50 nM by Z'LYTE screening method relative to control
Chain of Mitogen-activated protein kinase 11 (Homo sapiens) (Q15759 whole entry): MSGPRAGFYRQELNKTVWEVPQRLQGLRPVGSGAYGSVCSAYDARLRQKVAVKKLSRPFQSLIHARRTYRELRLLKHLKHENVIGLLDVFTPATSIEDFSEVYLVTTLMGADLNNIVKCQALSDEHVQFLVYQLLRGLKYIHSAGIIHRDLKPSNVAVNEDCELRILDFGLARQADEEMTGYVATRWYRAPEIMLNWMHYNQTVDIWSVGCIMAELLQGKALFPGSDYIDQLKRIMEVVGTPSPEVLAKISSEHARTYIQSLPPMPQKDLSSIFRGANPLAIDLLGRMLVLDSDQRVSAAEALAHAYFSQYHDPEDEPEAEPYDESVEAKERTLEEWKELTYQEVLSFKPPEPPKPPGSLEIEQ

[8] = biological target: Mitogen-activated protein kinase 8 (Homo sapiens) (UniProt P45983); test: Inhibition of MAPK8 (unknown origin) at 50 nM by Z'LYTE screening method relative to control
Chain of Mitogen-activated protein kinase 8 (Homo sapiens) (P45983 whole entry): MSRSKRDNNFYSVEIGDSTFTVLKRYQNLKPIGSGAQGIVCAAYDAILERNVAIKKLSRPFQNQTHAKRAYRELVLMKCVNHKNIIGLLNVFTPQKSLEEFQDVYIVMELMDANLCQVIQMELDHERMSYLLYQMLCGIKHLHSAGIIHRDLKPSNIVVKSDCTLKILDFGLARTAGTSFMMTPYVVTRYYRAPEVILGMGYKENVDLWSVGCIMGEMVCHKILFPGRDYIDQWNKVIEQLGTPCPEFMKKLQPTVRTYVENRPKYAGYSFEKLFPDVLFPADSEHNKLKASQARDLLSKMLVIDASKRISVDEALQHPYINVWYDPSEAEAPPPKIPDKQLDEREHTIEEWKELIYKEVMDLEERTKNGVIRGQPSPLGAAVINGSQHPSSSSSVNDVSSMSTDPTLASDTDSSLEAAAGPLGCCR

[9] = biological target: Serine/threonine-protein kinase PAK 1 (Homo sapiens) (UniProt Q13153); test: Inhibition of PAK1 (unknown origin) at 50 nM by Z'LYTE screening method relative to control
Chain of Serine/threonine-protein kinase PAK 1 (Homo sapiens) (Q13153 whole entry): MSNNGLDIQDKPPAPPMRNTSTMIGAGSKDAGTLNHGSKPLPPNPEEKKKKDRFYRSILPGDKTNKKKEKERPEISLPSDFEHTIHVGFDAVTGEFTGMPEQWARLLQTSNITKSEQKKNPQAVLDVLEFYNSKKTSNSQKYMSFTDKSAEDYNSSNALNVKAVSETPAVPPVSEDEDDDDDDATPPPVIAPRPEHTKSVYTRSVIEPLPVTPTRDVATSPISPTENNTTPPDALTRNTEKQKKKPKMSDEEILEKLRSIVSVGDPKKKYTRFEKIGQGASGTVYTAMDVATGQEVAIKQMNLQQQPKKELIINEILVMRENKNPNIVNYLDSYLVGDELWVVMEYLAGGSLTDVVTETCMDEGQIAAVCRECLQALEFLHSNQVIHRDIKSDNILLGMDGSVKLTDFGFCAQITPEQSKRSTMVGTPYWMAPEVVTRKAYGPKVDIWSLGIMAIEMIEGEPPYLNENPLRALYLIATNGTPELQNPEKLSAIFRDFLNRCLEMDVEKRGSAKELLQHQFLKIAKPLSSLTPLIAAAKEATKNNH

[10] = biological target: Protein kinase C beta type (Homo sapiens) (UniProt P05771); test: Inhibition of PKCbeta1 (unknown origin) at 50 nM by Z'LYTE screening method relative to control
Chain of Protein kinase C beta type (Homo sapiens) (P05771 2-671 limits assumed): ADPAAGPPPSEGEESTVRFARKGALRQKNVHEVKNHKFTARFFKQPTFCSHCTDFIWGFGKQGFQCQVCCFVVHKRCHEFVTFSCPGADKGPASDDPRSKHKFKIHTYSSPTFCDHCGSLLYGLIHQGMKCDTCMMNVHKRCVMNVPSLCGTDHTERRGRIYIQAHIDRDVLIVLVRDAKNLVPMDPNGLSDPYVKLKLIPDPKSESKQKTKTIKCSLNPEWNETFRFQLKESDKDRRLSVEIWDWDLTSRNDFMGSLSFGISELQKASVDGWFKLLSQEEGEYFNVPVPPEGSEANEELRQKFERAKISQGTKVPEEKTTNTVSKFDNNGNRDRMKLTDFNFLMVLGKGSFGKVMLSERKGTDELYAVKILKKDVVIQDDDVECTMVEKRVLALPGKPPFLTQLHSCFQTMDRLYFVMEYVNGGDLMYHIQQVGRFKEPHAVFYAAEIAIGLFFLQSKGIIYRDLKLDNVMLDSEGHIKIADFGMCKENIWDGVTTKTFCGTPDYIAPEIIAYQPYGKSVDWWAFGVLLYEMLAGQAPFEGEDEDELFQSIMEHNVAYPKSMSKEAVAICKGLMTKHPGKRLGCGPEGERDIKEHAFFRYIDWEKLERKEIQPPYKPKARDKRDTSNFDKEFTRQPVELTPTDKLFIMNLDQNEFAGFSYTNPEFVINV

[11] = biological target: Protein kinase C theta type (Homo sapiens, UniProt Q04759); test: Inhibition of PKCtheta (unknown origin) at 50 nM by Z'LYTE screening method relative to control
Chain of Protein kinase C theta type (Q04759 whole entry, looked up): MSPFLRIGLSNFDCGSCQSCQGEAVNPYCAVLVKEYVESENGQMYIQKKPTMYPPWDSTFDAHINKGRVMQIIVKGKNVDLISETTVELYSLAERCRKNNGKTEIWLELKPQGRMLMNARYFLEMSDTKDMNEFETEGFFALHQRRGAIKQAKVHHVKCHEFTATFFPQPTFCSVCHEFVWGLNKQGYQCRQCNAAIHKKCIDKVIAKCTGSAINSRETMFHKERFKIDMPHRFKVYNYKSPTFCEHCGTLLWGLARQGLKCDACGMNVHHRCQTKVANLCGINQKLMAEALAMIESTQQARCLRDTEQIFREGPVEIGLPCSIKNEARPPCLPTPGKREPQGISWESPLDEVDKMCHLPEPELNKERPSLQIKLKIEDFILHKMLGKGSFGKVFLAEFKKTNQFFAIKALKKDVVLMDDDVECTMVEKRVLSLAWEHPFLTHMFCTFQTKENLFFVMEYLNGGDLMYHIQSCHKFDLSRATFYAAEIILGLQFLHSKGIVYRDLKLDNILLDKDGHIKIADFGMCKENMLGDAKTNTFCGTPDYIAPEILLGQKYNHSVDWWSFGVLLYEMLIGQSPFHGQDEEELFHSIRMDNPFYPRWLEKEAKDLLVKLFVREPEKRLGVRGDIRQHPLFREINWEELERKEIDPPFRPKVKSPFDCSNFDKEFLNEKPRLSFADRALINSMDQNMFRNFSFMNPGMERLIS

[12] = biological target: T3, Protein kinase C zeta type (Homo sapiens) (UniProt Q05513); test: Inhibition of PKCzeta (unknown origin) at 50 nM by Z'LYTE screening method relative to control
T3 sequence (whole entry): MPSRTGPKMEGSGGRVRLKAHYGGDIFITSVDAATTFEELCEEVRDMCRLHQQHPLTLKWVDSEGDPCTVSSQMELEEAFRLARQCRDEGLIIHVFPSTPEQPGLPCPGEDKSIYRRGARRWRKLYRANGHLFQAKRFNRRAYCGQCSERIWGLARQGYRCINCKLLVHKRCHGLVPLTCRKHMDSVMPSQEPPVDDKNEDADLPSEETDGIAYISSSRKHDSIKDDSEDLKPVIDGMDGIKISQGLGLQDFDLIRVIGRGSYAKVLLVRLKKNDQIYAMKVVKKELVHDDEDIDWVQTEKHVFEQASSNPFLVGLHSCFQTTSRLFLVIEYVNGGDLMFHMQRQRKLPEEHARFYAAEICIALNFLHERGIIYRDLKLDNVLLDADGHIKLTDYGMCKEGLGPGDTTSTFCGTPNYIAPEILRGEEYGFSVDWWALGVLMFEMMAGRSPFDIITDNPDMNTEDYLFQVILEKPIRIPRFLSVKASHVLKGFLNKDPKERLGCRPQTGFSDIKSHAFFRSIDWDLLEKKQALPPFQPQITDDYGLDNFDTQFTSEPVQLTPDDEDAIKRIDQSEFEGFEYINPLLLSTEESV

[13] = biological target: Protein kinase C gamma type (Homo sapiens) (UniProt P05129); test: Inhibition of PKC gamma (unknown origin) at 50 nM by Z'LYTE screening method relative to control
[14] = biological target: Tyrosine-protein kinase Yes (Homo sapiens) (UniProt P07947); test: Inhibition of YES1 (unknown origin) at 50 nM by Z'LYTE screening method relative to control
[15] = biological target: Focal adhesion kinase 1 (Homo sapiens) (UniProt Q05397); test: Inhibition of FAK (unknown origin) at 50 nM by Z'LYTE screening method relative to control
4T1 = test: Cytotoxicity against mouse 4T1 cells assessed as reduction in cell viability incubated for 96 hrs by MTT assay; type: functional, cell-based; conditions: 4T1, 96 h

Chain of ALK tyrosine kinase receptor (Homo sapiens) (Q9UM73 19-1620 limits assumed): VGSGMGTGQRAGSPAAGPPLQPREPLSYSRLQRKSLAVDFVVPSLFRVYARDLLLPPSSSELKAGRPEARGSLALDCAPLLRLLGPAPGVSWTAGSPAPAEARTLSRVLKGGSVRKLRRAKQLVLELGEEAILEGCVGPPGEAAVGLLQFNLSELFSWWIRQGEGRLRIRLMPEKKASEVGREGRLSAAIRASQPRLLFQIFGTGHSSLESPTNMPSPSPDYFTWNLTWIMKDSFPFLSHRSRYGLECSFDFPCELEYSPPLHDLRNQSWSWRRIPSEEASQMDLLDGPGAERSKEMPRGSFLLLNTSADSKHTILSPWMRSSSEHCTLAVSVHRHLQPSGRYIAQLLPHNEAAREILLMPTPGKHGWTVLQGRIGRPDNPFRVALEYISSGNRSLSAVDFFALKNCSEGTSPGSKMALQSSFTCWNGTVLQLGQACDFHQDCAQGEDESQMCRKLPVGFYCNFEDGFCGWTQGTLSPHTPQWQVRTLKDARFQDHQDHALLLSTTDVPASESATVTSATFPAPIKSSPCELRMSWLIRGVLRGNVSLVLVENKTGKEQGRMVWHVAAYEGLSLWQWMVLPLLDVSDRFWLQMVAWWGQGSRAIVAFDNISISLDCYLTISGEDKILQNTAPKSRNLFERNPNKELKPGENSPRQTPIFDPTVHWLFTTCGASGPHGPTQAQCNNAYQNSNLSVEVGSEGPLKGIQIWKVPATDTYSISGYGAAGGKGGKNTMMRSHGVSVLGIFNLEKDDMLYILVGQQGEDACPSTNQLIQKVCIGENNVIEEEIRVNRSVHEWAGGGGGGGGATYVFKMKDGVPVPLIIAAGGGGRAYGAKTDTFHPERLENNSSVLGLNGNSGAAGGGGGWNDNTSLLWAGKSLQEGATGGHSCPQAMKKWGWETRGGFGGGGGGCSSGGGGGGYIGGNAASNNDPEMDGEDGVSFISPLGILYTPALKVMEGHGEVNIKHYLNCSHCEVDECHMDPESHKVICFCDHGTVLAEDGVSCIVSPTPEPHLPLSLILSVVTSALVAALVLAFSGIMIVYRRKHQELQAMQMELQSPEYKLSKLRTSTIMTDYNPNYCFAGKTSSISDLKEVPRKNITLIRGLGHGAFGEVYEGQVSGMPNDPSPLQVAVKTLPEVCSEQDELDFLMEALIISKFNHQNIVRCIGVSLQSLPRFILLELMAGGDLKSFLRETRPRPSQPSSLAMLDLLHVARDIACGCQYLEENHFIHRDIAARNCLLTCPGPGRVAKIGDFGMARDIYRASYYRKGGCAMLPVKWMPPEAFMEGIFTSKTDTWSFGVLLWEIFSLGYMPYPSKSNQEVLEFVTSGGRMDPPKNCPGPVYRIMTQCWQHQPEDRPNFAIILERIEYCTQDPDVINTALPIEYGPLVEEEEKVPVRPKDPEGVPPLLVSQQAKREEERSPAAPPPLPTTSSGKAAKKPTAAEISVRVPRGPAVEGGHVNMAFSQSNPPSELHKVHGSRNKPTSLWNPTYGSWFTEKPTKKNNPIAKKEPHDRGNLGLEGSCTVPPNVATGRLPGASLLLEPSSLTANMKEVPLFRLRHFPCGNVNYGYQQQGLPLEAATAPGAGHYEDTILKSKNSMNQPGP

Row | Structure (SMILES) | inhibition [1] [%] | inhibition [2] [%] | inhibition [3] [%] | inhibition [4] [%] | inhibition [5] [%] | inhibition [6] [%] | inhibition [7] [%] | inhibition [8] [%] | inhibition [9] [%] | inhibition [10] [%] | inhibition [11] [%] | inhibition [12] [%] | inhibition [13] [%] | inhibition [14] [%] | inhibition [15] [%] | pIC50 (4T1)
1 | CCN(CC)CCCC(C)Nc1nc(-n2[se]c3ccccc3c2=O)nc2[nH]cnc12 (stereo unspecified) | 2 | 7 | 0 | 3 | 0 | 2 | 3 | 0 | 14 | 8 | 83 | 9 | 6 | 15 | 4 | 4.82
2 | CCN(CC)CCCC(C)Nc1nc(N2Cc3ccccc3C2=O)nc2[nH]cnc12 (stereo unspecified) | 0 | 10 | 0 | 1 | 1 | 0 | 3 | 0 | 2 | 5 | 12 | 7 | 1 | 9 | 0 | 4.88
3 | C[C@@H]1[C@H]2C[C@@H](C[C@H]1Nc1nc(-n3[se]c4ccccc4c3=O)nc3[nH]cnc13)C2(C)C | 1 | 11 | 0 | 2 | 2 | 1 | 4 | 0 | 1 | 5 | 16 | 7 | 1 | 7 | 0 | 4.47
4 | O=c1c2ccccc2[se]n1-c1nc(N[C@H]2CCOC2)c2nc[nH]c2n1 | 1 | 1 | 0 | 1 | 2 | 1 | 3 | 0 | 0 | 84 | 85 | 2 | 25 | 6 | 0 | 5.74
5 | O=C1c2ccccc2CN1c1nc(NC2CCCCC2)c2nc[nH]c2n1 | 1 | 9 | 0 | 2 | 1 | 0 | 1 | 0 | 0 | 5 | 0 | 9 | 0 | 5 | 0 | 4.61
6 | O=c1c2ccccc2[se]n1-c1nc(NC2CCCCC2)c2nc[nH]c2n1 | 1 | 13 | 0 | 3 | 1 | 0 | 3 | 0 | 0 | 59 | 62 | 9 | 45 | 38 | 0 | 5.09
7 | CCCNc1nc(-n2[se]c3ccccc3c2=O)nc2[nH]cnc12 | 1 | 6 | 1 | 2 | 0 | 0 | 4 | 0 | 1 | 2 | 25 | 3 | 1 | 3 | 0 | 4.95
8 | O=C1c2ccccc2CN1c1nc(N[C@H]2CC[Se]C2)c2nc[nH]c2n1 | 0 | 13 | 0 | 1 | 2 | 2 | 3 | 0 | 0 | 7 | 14 | 6 | 3 | 12 | 0 | 4.57
9 | O=c1c2ccccc2[se]n1-c1nc(N[C@H]2CC[Se]C2)c2nc[nH]c2n1 | 0 | 0 | 0 | 0 | 2 | 0 | 9 | 0 | 0 | 95 | 98 | 12 | 47 | 10 | 0 | 6.10
10 | O=c1c2ccccc2[se]n1-c1nc(Nc2ccccc2)c2nc[nH]c2n1 | 1 | 6 | 0 | 2 | 1 | 0 | 2 | 0 | 0 | 6 | 12 | 4 | 0 | 8 | 0 | 4.82
11 | O=C1c2ccccc2CN1c1nc(NC2CCCC2)c2nc[nH]c2n1 | 2 | 1 | 0 | 0 | 2 | 2 | 0 | 0 | 0 | 0 | 7 | 6 | 2 | 1 | 0 | 4.78
